Experimental data reported in patent publication US5034212A, “Method of imaging using a radioactive glucosamine derivative” (Nihon Medi-Physics Co., Ltd., priority 1989, dated 1991).
One block for each molecule: values may come before it.

Assays:
[1] = Octanol/phosphate buffer distribution ratio (lipophilic property); format: physicochemical
Procedure: To a mixture of octanol (3 ml) and phosphate buffer (PBS) (3 ml), ^125 I-ABGA as obtained in Example 2 was added, followed by stirring and allowing to stand. The radioactivity of each layer was measured, and the distribution ratio was determined. The results are shown in Table 1, from which it is understood that ^125 I-ABGA is lypophilic.

[2] = Stability in buffer of pH 5, 7 or 9 at 37° C., TLC analysis; format: physicochemical
Procedure: A solution of ^125 I-ABGA in dimethylsulfoxide was added to a buffer of pH 5, 7 or 9 and incubated at 37° C. for a certain period of time.

Swine liver esterase = assay: Enzymatic deesterification with swine liver esterase, TLC analysis; format: in vitro ADME; conditions: pH 7.4, 37° C.; for Proportion of peak component ABGA / Proportion of peak component BGA / Proportion of peak component I^- / Proportion of peak component Others: esterase 100 U
Procedure: Swine liver esterase (100 U) was added to phosphate buffer (pH 7.4), and ^125 I-ABGA (50 kBq) was added thereto, followed by incubation at 37° C. for a certain period of time. The reaction mixture was sampled, and ethanol was added thereto, followed by centrifugation.

[3] = Body distribution of ^125 I-ABGA in mouse; format: in vivo, ddY strain male mice; conditions: i.v.
brain = assay: Behavior in mouse: TLC of brain and blood homogenates after tail vein injection; format: in vivo, ddY strain male mice
Procedure: ^125 I-ABGA was injected into ddY strain male mice at the tail vein, and after a certain period of time, the mice were sacrificed. The blood was collected from the heart, and the brain was taken out. The blood and the brain were respectively admixed with 5% trichloroacetic acid (1 ml), homogenized and centrifuged at 3,000 rpm and at 0° C. for 10 minutes. The supernatant was analyzed by thin layer chromatography using a mixture of chloroform and methanol (7:3 by volume) as a developing solvent. The results are shown in FIGS. 1A and 1B of the accompanying drawings. In FIGS. 1A and 1B showing respectively the analytical results on the brain homogenate and the blood homogenate, the solid line, the dotted line and the solid-dot mixed line represent respectively the ones of 5 minutes, 60 minutes and 180 minutes after the administration.

[4] = Body distribution of BGA in mouse; format: in vivo
hexokinase = assay: Phosphorylation with hexokinase / inhibition of glucose phosphorylation; format: biochemical

Compound: CC(=O)OC[C@H]1OC(OC(C)=O)[C@H](NC(=O)c2cccc([125I])c2)[C@@H](OC(C)=O)[C@@H]1OC(C)=O (stereo partly drawn) [^125 I-ABGA, ^125 I-labeled N-(m-iodobenzoyl)-1,3,4,6-tetra-O-acetyl-D-glucosamine]
Lipophilic property ([1]; octanol/PBS): lypophilic | Distribution ratio in PBS and octanol ([1]; pH 7.0): 189.0 | Distribution ratio in PBS and octanol ([1]; pH 7.4): 193.8 | Distribution ratio in PBS and octanol ([1]; pH 8.10): 206.5 | Stability: peak component ABGA ([2]; 15 min, pH 5, 37° C.): 99.1 | Stability: peak component I^- ([2]; 15 min, pH 5, 37° C.): 0 | Stability: peak component Others ([2]; 15 min, pH 5, 37° C.): 0 | Stability: peak component ABGA ([2]; 15 min, pH 7, 37° C.): 99.9 | Stability: peak component I^- ([2]; 15 min, pH 7, 37° C.): 0 | Stability: peak component Others ([2]; 15 min, pH 7, 37° C.): 0 | Stability: peak component ABGA ([2]; 15 min, pH 9, 37° C.): 53.9 | Stability: peak component I^- ([2]; 15 min, pH 9, 37° C.): 10.2 | Stability: peak component Others ([2]; 15 min, pH 9, 37° C.): 31.5 | Stability: peak component ABGA ([2]; 60 min, pH 5, 37° C.): 98.5 | Stability: peak component I^- ([2]; 60 min, pH 5, 37° C.): 0 | Stability: peak component Others ([2]; 60 min, pH 5, 37° C.): 0 | Stability: peak component ABGA ([2]; 60 min, pH 7, 37° C.): 99.3 | Stability: peak component I^- ([2]; 60 min, pH 7, 37° C.): 0 | Stability: peak component Others ([2]; 60 min, pH 7, 37° C.): 0 | Stability: peak component ABGA ([2]; 60 min, pH 9, 37° C.): 25.5 | Stability: peak component I^- ([2]; 60 min, pH 9, 37° C.): 19.6 | Stability: peak component Others ([2]; 60 min, pH 9, 37° C.): 49.0 | Stability: peak component ABGA ([2]; 180 min, pH 5, 37° C.): 98.4 | Stability: peak component I^- ([2]; 180 min, pH 5, 37° C.): 0 | Stability: peak component Others ([2]; 180 min, pH 5, 37° C.): 0 | Stability: peak component ABGA ([2]; 180 min, pH 7, 37° C.): 97.8 | Stability: peak component I^- ([2]; 180 min, pH 7, 37° C.): 0.9 | Stability: peak component Others ([2]; 180 min, pH 7, 37° C.): 0 | Stability: peak component ABGA ([2]; 180 min, pH 9, 37° C.): 2.2 | Stability: peak component I^- ([2]; 180 min, pH 9, 37° C.): 31.1 | Stability: peak component Others ([2]; 180 min, pH 9, 37° C.): 57.5 | Stability at high pH ([2]; high pH (pH 9), 37° C.): hydrolyzed to BGA with deiodization at high pH | Stability at other pH ([2]; pH 5 and 7, 37° C., up to 3 hours): stable (i.e. neither hydrolyzed nor deiodized) even after 3 hours at other pH | Proportion of peak component ABGA (Swine liver esterase; 10 min): 0 | Proportion of peak component BGA (Swine liver esterase; 10 min): 87.3 ± 3.1 | Proportion of peak component I^- (Swine liver esterase; 10 min): 0.9 ± 0.5 | Proportion of peak component Others (Swine liver esterase; 10 min): 10.6 ± 2.9 | Proportion of peak component ABGA (Swine liver esterase; 60 min): 0 | Proportion of peak component BGA (Swine liver esterase; 60 min): 54.5 ± 3.7 | Proportion of peak component I^- (Swine liver esterase; 60 min): 6.5 ± 0.5 | Proportion of peak component Others (Swine liver esterase; 60 min): 33.7 ± 2.4 | Proportion of peak component ABGA (Swine liver esterase; 180 min): 0 | Proportion of peak component BGA (Swine liver esterase; 180 min): 7.2 ± 2.2 | Proportion of peak component I^- (Swine liver esterase; 180 min): 33.4 ± 1.6 | Proportion of peak component Others (Swine liver esterase; 180 min): 42.9 ± 0.4 | Enzymatic deesterification (Swine liver esterase; swine liver esterase): deesterified in a very short time to give N-m-iodobenzoyl-D-glucosamine (BGA) | Body distribution, Blood ([3]; 2 min): 5.16 ± 0.97 % dose/g organ | Body distribution, Brain ([3]; 2 min): 0.53 ± 0.14 % dose/g organ | Body distribution, Heart ([3]; 2 min): 4.88 ± 0.97 % dose/g organ | Body distribution, Intestine ([3]; 2 min): 3.94 ± 1.19 % dose/g organ | Body distribution, Kidney ([3]; 2 min): 14.87 ± 2.31 % dose/g organ | Body distribution, Liver ([3]; 2 min): 15.32 ± 4.43 % dose/g organ | Body distribution, Pancreas ([3]; 2 min): 4.54 ± 1.03 % dose/g organ | Body distribution, Stomach ([3]; 2 min): 1.87 ± 0.68 % dose/g organ | Body distribution, Blood ([3]; 5 min): 7.16 ± 0.13 % dose/g organ | Body distribution, Brain ([3]; 5 min): 0.55 ± 0.11 % dose/g organ | Body distribution, Heart ([3]; 5 min): 4.45 ± 0.52 % dose/g organ | Body distribution, Intestine ([3]; 5 min): 4.58 ± 0.60 % dose/g organ | Body distribution, Kidney ([3]; 5 min): 11.39 ± 3.08 % dose/g organ | Body distribution, Liver ([3]; 5 min): 12.85 ± 1.71 % dose/g organ | Body distribution, Pancreas ([3]; 5 min): 4.40 ± 0.28 % dose/g organ | Body distribution, Stomach ([3]; 5 min): 0.59 ± 0.23 % dose/g organ | Body distribution, Blood ([3]; 15 min): 6.64 ± 0.31 % dose/g organ | Body distribution, Brain ([3]; 15 min): 0.47 ± 0.06 % dose/g organ | Body distribution, Heart ([3]; 15 min): 3.35 ± 0.27 % dose/g organ | Body distribution, Intestine ([3]; 15 min): 5.89 ± 0.47 % dose/g organ | Body distribution, Kidney ([3]; 15 min): 7.00 ± 0.49 % dose/g organ | Body distribution, Liver ([3]; 15 min): 7.66 ± 0.86 % dose/g organ | Body distribution, Pancreas ([3]; 15 min): 3.16 ± 0.30 % dose/g organ | Body distribution, Stomach ([3]; 15 min): 1.88 ± 0.52 % dose/g organ | Body distribution, Blood ([3]; 30 min): 4.16 ± 2.42 % dose/g organ | Body distribution, Brain ([3]; 30 min): 0.43 ± 0.02 % dose/g organ | Body distribution, Heart ([3]; 30 min): 2.69 ± 0.20 % dose/g organ | Body distribution, Intestine ([3]; 30 min): 6.26 ± 0.96 % dose/g organ | Body distribution, Kidney ([3]; 30 min): 6.37 ± 3.04 % dose/g organ | Body distribution, Liver ([3]; 30 min): 5.82 ± 0.64 % dose/g organ | Body distribution, Pancreas ([3]; 30 min): 2.59 ± 0.13 % dose/g organ | Body distribution, Stomach ([3]; 30 min): 1.86 ± 0.13 % dose/g organ | Body distribution, Blood ([3]; 60 min): 3.67 ± 0.40 % dose/g organ | Body distribution, Brain ([3]; 60 min): 0.33 ± 0.05 % dose/g organ | Body distribution, Heart ([3]; 60 min): 1.87 ± 0.37 % dose/g organ | Body distribution, Intestine ([3]; 60 min): 6.88 ± 0.53 % dose/g organ | Body distribution, Kidney ([3]; 60 min): 3.81 ± 0.75 % dose/g organ | Body distribution, Liver ([3]; 60 min): 4.94 ± 0.90 % dose/g organ | Body distribution, Pancreas ([3]; 60 min): 2.10 ± 0.34 % dose/g organ | Body distribution, Stomach ([3]; 60 min): 1.74 ± 0.83 % dose/g organ | Body distribution, Blood ([3]; 180 min): 0.91 ± 0.55 % dose/g organ | Body distribution, Brain ([3]; 180 min): 0.19 ± 0.08 % dose/g organ | Body distribution, Heart ([3]; 180 min): 0.75 ± 0.34 % dose/g organ | Body distribution, Intestine ([3]; 180 min): 4.60 ± 2.84 % dose/g organ | Body distribution, Kidney ([3]; 180 min): 1.08 ± 0.67 % dose/g organ | Body distribution, Liver ([3]; 180 min): 2.25 ± 1.44 % dose/g organ | Body distribution, Pancreas ([3]; 180 min): 0.76 ± 0.35 % dose/g organ | Body distribution, Stomach ([3]; 180 min): 1.27 ± 0.80 % dose/g organ

TLC peak of ABGA over time (brain; mouse brain, 5 to 180 minutes): decreases with the lapse of time | Clearance from the blood [3]: rapid clearance from the blood | Retention in the brain [3]: retention in the brain | Uptake in the brain in comparison with BGA [3]: higher uptake in the brain
Compound: CC(=O)OC[C@H]1OC(OC(C)=O)[C@H](NC(=O)c2cccc(I)c2)[C@@H](OC(C)=O)[C@@H]1OC(C)=O (stereo partly drawn) [ABGA, N-(m-iodobenzoyl)-1,3,4,6-tetra-O-acetyl-D-glucosamine]
TLC peaks in brain (brain; mouse brain, 5 minutes after i.v. administration): the peaks of ABGA and BGA appear in brain 5 minutes after the administration | Transfer to brain and deesterification (brain; mouse, i.v.): transferred to brain at the initial stage of administration and thereafter deesterified, whereby it behaves as BGA | Brain/blood ratio with lapse of time [3]: increase of the brain/blood ratio with the lapse of time

Disappearance of radioactivity from brain ([4]; mouse): parallel to the blood clearance | Phosphorylation with hexokinase (hexokinase): not phosphorylated with hexokinase
Compound: O=C(N[C@H]1C(O)O[C@H](CO)[C@@H](O)[C@@H]1O)c1cccc(I)c1 (stereo partly drawn) [BGA, N-m-iodobenzoyl-D-glucosamine]
Passage through the blood-brain barrier ([4]; in vivo): can hardly pass through the blood-brain barrier (BBB) in vivo | Stomach accumulation as index of deiodization / stability in body ([4]; mouse): low in stomach accumulation as the index of deiodization and thus stable in a body | Inhibition to the ATP action (hexokinase): antagonistic inhibition to the ATP action | Inhibition to the phosphorylation of glucose (hexokinase): non-antagonistic inhibition to the phosphorylation of glucose
